Laboratory results reported in PubChem BioAssay (NCI).
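The compound was tested at five concentrations on cells cultured in 96-well plates, with a 48-hour exposure period. TGI: total growth inhibition.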

Key:
Test in all cases: growth of human tumour cells (NCI), 48 h
HOP-92 NSCLC = system: HOP-92 NSCLC
COLO 205 colon = system: COLO 205 colon
KM12 colon = system: KM12 colon
NCI-H226 lung = system: NCI-H226 lung
K-562 leukemia = system: K-562 leukemia
LOX IMVI melanoma = system: LOX IMVI melanoma
HT29 colon = system: HT29 colon
SK-OV-3 ovarian = system: SK-OV-3 ovarian
HS 578T breast = system: HS 578T breast
UACC-257 melanoma = system: UACC-257 melanoma
SW-620 colon = system: SW-620 colon
A498 renal = system: A498 renal
SF-539 CNS = system: SF-539 CNS
EKVX NSCLC = system: EKVX NSCLC
SR leukemia = system: SR leukemia
PC-3 prostate = system: PC-3 prostate
MALME-3M melanoma = system: MALME-3M melanoma
SN12C renal = system: SN12C renal
HCC-2998 colon = system: HCC-2998 colon
SF-268 CNS = system: SF-268 CNS
HL-60(TB) leukemia = system: HL-60(TB) leukemia
SK-MEL-28 melanoma = system: SK-MEL-28 melanoma
MDA-N = system: MDA-N
HCT-15 colon = system: HCT-15 colon
U251 CNS = system: U251 CNS
RXF 393 renal = system: RXF 393 renal
SNB-19 CNS = system: SNB-19 CNS
CCRF-CEM leukemia = system: CCRF-CEM leukemia
NCI-H522 lung = system: NCI-H522 lung
MDA-MB-231 breast = system: MDA-MB-231 breast
ACHN renal = system: ACHN renal
A549 NSCLC = system: A549 NSCLC
CAKI-1 renal = system: CAKI-1 renal
OVCAR-3 ovarian = system: OVCAR-3 ovarian
HOP-62 NSCLC = system: HOP-62 NSCLC
HCT-116 colon = system: HCT-116 colon
OVCAR-5 ovarian = system: OVCAR-5 ovarian
MCF7 breast = system: MCF7 breast
NCI-H460 lung = system: NCI-H460 lung
OVCAR-4 ovarian = system: OVCAR-4 ovarian
786-0 renal = system: 786-0 renal
UO-31 renal = system: UO-31 renal
MDA-MB-435 = system: MDA-MB-435
T-47D breast = system: T-47D breast
OVCAR-8 ovarian = system: OVCAR-8 ovarian
SNB-75 CNS = system: SNB-75 CNS
M14 melanoma = system: M14 melanoma
SK-MEL-5 melanoma = system: SK-MEL-5 melanoma
IGROV1 ovarian = system: IGROV1 ovarian
SK-MEL-2 melanoma = system: SK-MEL-2 melanoma
NCI-H23 lung = system: NCI-H23 lung
TK-10 renal = system: TK-10 renal
DU-145 prostate = system: DU-145 prostate
RPMI-8226 leukemia = system: RPMI-8226 leukemia
MOLT-4 leukemia = system: MOLT-4 leukemia
NCI/ADR-RES ovarian = system: NCI/ADR-RES ovarian
BT-549 breast = system: BT-549 breast
SF-295 CNS = system: SF-295 CNS
UACC-62 melanoma = system: UACC-62 melanoma

CC(C)=CCc1c(O)c(CC=C(C)C)c2oc(-c3ccc(O)cc3O)c(CC=C(C)C)c(=O)c2c1O
TGI (HOP-92 NSCLC): 23 µM
TGI (COLO 205 colon): > 59.5 µM
TGI (KM12 colon): 16.7 µM
TGI (NCI-H226 lung): 47.6 µM
TGI (K-562 leukemia): 27.4 µM
TGI (LOX IMVI melanoma): 22.5 µM
TGI (HT29 colon): 22.8 µM
TGI (SK-OV-3 ovarian): 26.2 µM
TGI (HS 578T breast): 45.6 µM
TGI (UACC-257 melanoma): 25.6 µM
TGI (SW-620 colon): 23.3 µM
TGI (A498 renal): 27.3 µM
TGI (SF-539 CNS): 32.7 µM
TGI (EKVX NSCLC): 27.9 µM
TGI (SR leukemia): 9.88 µM
TGI (PC-3 prostate): 18.4 µM
TGI (MALME-3M melanoma): 33.4 µM
TGI (SN12C renal): 21.1 µM
TGI (HCC-2998 colon): 11.7 µM
TGI (SF-268 CNS): > 53.2 µM
TGI (HL-60(TB) leukemia): 21.7 µM
TGI (SK-MEL-28 melanoma): 26.6 µM
TGI (MDA-N): 20.4 µM
TGI (HCT-15 colon): 23.8 µM
TGI (U251 CNS): 22.8 µM
TGI (RXF 393 renal): 14.6 µM
TGI (SNB-19 CNS): 25.6 µM
TGI (CCRF-CEM leukemia): 5.83 µM
TGI (NCI-H522 lung): 24.9 µM
TGI (MDA-MB-231 breast): 27.6 µM
TGI (ACHN renal): 20.9 µM
TGI (A549 NSCLC): 24.2 µM
TGI (CAKI-1 renal): 25.4 µM
TGI (OVCAR-3 ovarian): 19.6 µM
TGI (HOP-62 NSCLC): 23.4 µM
TGI (HCT-116 colon): 17 µM
TGI (OVCAR-5 ovarian): 28.3 µM
TGI (MCF7 breast): 18.3 µM
TGI (NCI-H460 lung): 17.8 µM
TGI (OVCAR-4 ovarian): 18.1 µM
TGI (786-0 renal): 21.4 µM
TGI (UO-31 renal): 21.1 µM
TGI (MDA-MB-435): 16.7 µM
TGI (T-47D breast): 12.8 µM
TGI (OVCAR-8 ovarian): 19.7 µM
TGI (SNB-75 CNS): 22.7 µM
TGI (M14 melanoma): 22.5 µM
TGI (SK-MEL-5 melanoma): 23 µM
TGI (IGROV1 ovarian): 23.6 µM
TGI (SK-MEL-2 melanoma): 12.8 µM
TGI (NCI-H23 lung): 22 µM
TGI (TK-10 renal): 21.2 µM
TGI (DU-145 prostate): 25.2 µM
TGI (RPMI-8226 leukemia): 10.9 µM
TGI (MOLT-4 leukemia): 14.6 µM
TGI (NCI/ADR-RES ovarian): 53.4 µM
TGI (BT-549 breast): 21.6 µM
TGI (SF-295 CNS): 20.3 µM
TGI (UACC-62 melanoma): 20.3 µM

COP(=O)(OC)/C(=C/c1c[nH]c2ccccc12)C(=O)O
TGI (HOP-92 NSCLC): > 100 µM
TGI (COLO 205 colon): > 100 µM
TGI (KM12 colon): > 100 µM
TGI (NCI-H226 lung): > 100 µM
TGI (K-562 leukemia): > 100 µM
TGI (LOX IMVI melanoma): > 100 µM
TGI (HT29 colon): > 100 µM
TGI (SK-OV-3 ovarian): > 100 µM
TGI (HS 578T breast): > 100 µM
TGI (SW-620 colon): > 100 µM
TGI (A498 renal): > 100 µM
TGI (SF-539 CNS): > 100 µM
TGI (EKVX NSCLC): > 100 µM
TGI (SR leukemia): > 100 µM
TGI (PC-3 prostate): > 100 µM
TGI (MALME-3M melanoma): > 100 µM
TGI (SN12C renal): > 100 µM
TGI (HCC-2998 colon): > 100 µM
TGI (HL-60(TB) leukemia): > 100 µM
TGI (SK-MEL-28 melanoma): > 100 µM
TGI (MDA-N): > 100 µM
TGI (HCT-15 colon): > 100 µM
TGI (U251 CNS): > 100 µM
TGI (RXF 393 renal): > 100 µM
TGI (SNB-19 CNS): > 100 µM
TGI (CCRF-CEM leukemia): > 100 µM
TGI (NCI-H522 lung): > 100 µM
TGI (MDA-MB-231 breast): > 100 µM
TGI (ACHN renal): > 100 µM
TGI (A549 NSCLC): > 100 µM
TGI (CAKI-1 renal): > 100 µM
TGI (OVCAR-3 ovarian): > 100 µM
TGI (HOP-62 NSCLC): > 100 µM
TGI (HCT-116 colon): > 100 µM
TGI (OVCAR-5 ovarian): > 100 µM
TGI (MCF7 breast): > 100 µM
TGI (NCI-H460 lung): > 100 µM
TGI (OVCAR-4 ovarian): > 100 µM
TGI (786-0 renal): > 100 µM
TGI (UO-31 renal): > 100 µM
TGI (MDA-MB-435): > 100 µM
TGI (T-47D breast): > 100 µM
TGI (OVCAR-8 ovarian): > 100 µM
TGI (SNB-75 CNS): > 100 µM
TGI (M14 melanoma): > 100 µM
TGI (SK-MEL-5 melanoma): > 100 µM
TGI (IGROV1 ovarian): > 100 µM
TGI (SK-MEL-2 melanoma): > 100 µM
TGI (NCI-H23 lung): > 100 µM
TGI (TK-10 renal): > 100 µM
TGI (DU-145 prostate): > 100 µM
TGI (RPMI-8226 leukemia): > 100 µM
TGI (MOLT-4 leukemia): > 100 µM
TGI (NCI/ADR-RES ovarian): > 100 µM
TGI (BT-549 breast): > 100 µM
TGI (SF-295 CNS): > 100 µM
TGI (UACC-62 melanoma): > 100 µM
